Results published in patent US6989451B2, “Heterocyclic compounds and uses thereof” (Valeant Research & Development, priority 2002, dated 2006).

Experiments:
[1] = system: MEK-ERK dependent luciferase expression (constitutively activated mutant MEK) in 293T cells; assay: Cell-based MEK-ERK dependent luciferase reporter assay in 293T cells; conditions: Homo sapiens, HEK-293T, minimum concentration causing 50% inhibition in cell-based assays, 24 hours incubation
Protocol: Activities of compounds were determined using a cell-based assay system. 293T cells were engineered to express a luciferase reporter protein in response to activation of ERK. ERK was activated by the doxycycline inducible expression of a constitutively activated mutant MEK. The activated MEK mutant had serines 218 and 222 replaced with aspartic acids. Therefore, addition of doxycycline to the media of cells induced an increase in MEK-ERK dependent luciferase expression.
Cells were plated at 5000 cells per well of a 384 well plate in 20 ul of media containing 10 ng/ml doxycycline. Compounds were resuspended in DMSO at a concentration of 20 mM. These compound stocks were diluted at least 200 fold so the concentration of DMSO was never above 0.5%. Cells were incubated with compounds for 24 hours at which time 25 ul of Steady-Glo (Promega Corp.) was added. The plates were then assayed for luminescence. Percent inhibition was calculated by dividing the luminescence of compound treated cells by control cells.

GST-hMEK1 and mERK2 = target: T1, GST-hMEK1 and mERK2 (Homo sapiens, UniProt Q02750); assay type: biochemical; conditions: minimum concentration causing 50% inhibition in vitro assays; MEK kinase inhibition
T1 construct: purified GST-hMEK1 and mERK2 enzymes; fused on or other part: GST tag on hMEK1
T1 sequence (P63085 2-358): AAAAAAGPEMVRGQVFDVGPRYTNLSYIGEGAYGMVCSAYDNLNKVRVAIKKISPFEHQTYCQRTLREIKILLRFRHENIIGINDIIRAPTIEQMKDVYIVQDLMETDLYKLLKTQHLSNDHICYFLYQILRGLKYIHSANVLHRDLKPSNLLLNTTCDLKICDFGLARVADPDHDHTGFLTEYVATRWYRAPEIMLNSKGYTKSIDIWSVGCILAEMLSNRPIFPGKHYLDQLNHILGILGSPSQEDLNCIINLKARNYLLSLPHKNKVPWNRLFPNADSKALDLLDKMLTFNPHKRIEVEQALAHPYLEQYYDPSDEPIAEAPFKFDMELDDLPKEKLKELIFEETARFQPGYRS
T1 sequence (Q02750 whole entry, the tested form may be a part): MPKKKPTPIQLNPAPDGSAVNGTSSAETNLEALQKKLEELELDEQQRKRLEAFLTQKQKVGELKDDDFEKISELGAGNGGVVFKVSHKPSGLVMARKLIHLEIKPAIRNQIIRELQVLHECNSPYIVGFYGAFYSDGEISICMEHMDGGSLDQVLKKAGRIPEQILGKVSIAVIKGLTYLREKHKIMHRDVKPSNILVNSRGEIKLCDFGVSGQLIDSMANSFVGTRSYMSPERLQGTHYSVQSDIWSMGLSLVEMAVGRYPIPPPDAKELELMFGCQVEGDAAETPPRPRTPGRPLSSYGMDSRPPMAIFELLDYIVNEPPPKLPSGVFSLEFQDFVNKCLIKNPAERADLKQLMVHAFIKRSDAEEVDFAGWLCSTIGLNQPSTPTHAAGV
Protocol: In order to identify ideal inhibitory compounds in a high throughput-screening (HTS) format a 96-well radiolabel incorporation format assay utilizing purified GST-hMEK1 and mERK2 enzymes was developed. Compounds were diluted from dimethylsulfoxide (DMSO) stocks into 1× Simplified Assay Buffer (SAB) (20 mM HEPES and 10 mM MgCl2). A typical 25 microliter assay contained 0.002 nanomoles MEK^CA, 0.02 nanomoles ERK, 0.25 nanomoles MBP, 0.25 nanomoles unlabeled ATP, and 0.1 μCi [γ^33P] ATP. The screening assay essentially comprised four additions. Five μ1 of diluted compound were dispensed to 96-well assay plates. Ten μl of 2.5× enzyme cocktail (MEK^CA and ERK only) were then added to each well followed by a pre-incubation for 15 minutes at 37° C. […] Finally, 200 μl of 10% trichloroacetic acid (TCA) were added and incubated for 30 minutes to halt the reaction and precipitate radio labeled protein products. A filter plate was placed in the Filtermate Harvester, wetted twice with water, and rinsed twice with 1% pyrophosphate to block nonspecific binding to the glass filter. An assay plate was then scanned and aspirated or harvested onto the filter plate. The filter plate was then washed 12 times with water. Water was displaced by two washes with absolute ethanol and the plate was removed and allowed to air dry for 30 minutes at room temperature. A back seal was applied manually and 40 μl of scintillation cocktail were dispensed per well. A top seal was applied and the plate was counted in the TopCount for two seconds per well.

N#Cc1c(O)nsc1Nc1ccccc1 [Compound 1]
EC50 [1]: 10 to 100 µM
IC50 (GST-hMEK1 and mERK2): < 10 µM

N#Cc1c(Br)nsc1Nc1ccccc1 [Compound 2]
EC50 [1]: < 10 µM
IC50 (GST-hMEK1 and mERK2): 10 to 100 µM

Cc1ccc(Nc2snc(O)c2C#N)cc1 [Compound 3]
EC50 [1]: < 10 µM
IC50 (GST-hMEK1 and mERK2): 10 to 100 µM

Cc1cccc(Nc2s[nH]c(=O)c2C#N)c1 [Compound 4]
EC50 [1]: 10 to 100 µM
IC50 (GST-hMEK1 and mERK2): 10 to 100 µM

Cc1ccccc1Nc1snc(O)c1C#N [Compound 5]
EC50 [1]: 10 to 100 µM
IC50 (GST-hMEK1 and mERK2): 10 to 100 µM

COc1ccc(Nc2snc(O)c2C#N)cc1 [Compound 6]
EC50 [1]: > 100 µM

COc1ccccc1Nc1snc(O)c1C#N [Compound 7]
EC50 [1]: > 100 µM

COc1cccc(Nc2snc(O)c2C#N)c1 [Compound 8]
EC50 [1]: > 100 µM

N#Cc1c(O)nsc1Nc1ccc(Cl)cc1 [Compound 9]
EC50 [1]: > 100 µM
IC50 (GST-hMEK1 and mERK2): 10 to 100 µM

N#Cc1c(O)nsc1Nc1cccc(Cl)c1 [Compound 10]
EC50 [1]: > 100 µM
IC50 (GST-hMEK1 and mERK2): 10 to 100 µM

N#Cc1c(O)nsc1Nc1ccccc1Cl [Compound 11]
EC50 [1]: > 100 µM
IC50 (GST-hMEK1 and mERK2): 10 to 100 µM

N#Cc1c(O)nsc1Nc1ccc([N+](=O)[O-])cc1 [Compound 12]
EC50 [1]: > 100 µM
IC50 (GST-hMEK1 and mERK2): < 10 µM

N#Cc1c(O)nsc1Nc1cccc2ccccc12 [Compound 13]
EC50 [1]: < 10 µM
IC50 (GST-hMEK1 and mERK2): < 10 µM

COc1cc(-c2ccccc2)ccc1Nc1snc(O)c1C#N [Compound 14]
EC50 [1]: > 100 µM
IC50 (GST-hMEK1 and mERK2): < 10 µM

CC(C)c1ccc(Nc2snc(O)c2C#N)cc1 [Compound 15]
EC50 [1]: < 10 µM
IC50 (GST-hMEK1 and mERK2): < 10 µM

CC(C)c1cccc(C(C)C)c1Nc1snc(O)c1C#N [Compound 16]
EC50 [1]: 10 to 100 µM
IC50 (GST-hMEK1 and mERK2): 10 to 100 µM

CN(C)c1ccc2ccccc2c1Nc1snc(O)c1C#N [Compound 17]
EC50 [1]: < 10 µM
IC50 (GST-hMEK1 and mERK2): < 10 µM

CN(C)c1ccc(Nc2snc(O)c2C#N)c2ccccc12 [Compound 18]
EC50 [1]: < 10 µM
IC50 (GST-hMEK1 and mERK2): < 10 µM

N#Cc1c(O)nsc1Nc1ccccc1C(F)(F)F [Compound 19]
IC50 (GST-hMEK1 and mERK2): 10 to 100 µM

Cc1ccc(Nc2snc(N)c2C#N)cc1 [Compound 20]
IC50 (GST-hMEK1 and mERK2): < 10 µM

N#Cc1c(O)nsc1Nc1ccc(N)cc1 [Compound 21]
IC50 (GST-hMEK1 and mERK2): < 10 µM

CC(=O)c1ccc(Nc2snc(O)c2C#N)cc1 [Compound 22]
IC50 (GST-hMEK1 and mERK2): < 10 µM

N#Cc1c(Nc2ccc(Br)cc2)s[nH]c1=O [Compound 24]
IC50 (GST-hMEK1 and mERK2): < 10 µM

COC(=O)c1ccc(Nc2snc(O)c2C#N)cc1 [Compound 25]
IC50 (GST-hMEK1 and mERK2): < 10 µM

N#Cc1c(O)nsc1Nc1ccccc1F [Compound 26]
IC50 (GST-hMEK1 and mERK2): < 10 µM

COC(=O)c1ccccc1Nc1snc(O)c1C#N [Compound 27]
IC50 (GST-hMEK1 and mERK2): < 10 µM

N#Cc1c(O)nsc1Nc1cccnc1 [Compound 29]
IC50 (GST-hMEK1 and mERK2): < 10 µM

N#Cc1c(O)nsc1NC1CCc2ccccc21 (stereo not shown) [Compound 31]
IC50 (GST-hMEK1 and mERK2): < 10 µM

CCCCNc1snc(O)c1C#N [Compound 32]
IC50 (GST-hMEK1 and mERK2): < 10 µM

N#Cc1c(O)nsc1N1CCCCC1 [Compound 33]
IC50 (GST-hMEK1 and mERK2): < 10 µM

N#Cc1c(O)nsc1NCC1CCCO1 (stereo not shown) [Compound 34]
IC50 (GST-hMEK1 and mERK2): < 10 µM

N#Cc1c(O)nsc1NCCc1ccc(O)cc1 [Compound 35]
IC50 (GST-hMEK1 and mERK2): < 10 µM

N=C(N)c1c(O)nsc1Nc1ccc(Oc2ccccc2)cc1 [Compound 36]
IC50 (GST-hMEK1 and mERK2): < 10 µM

NC(=O)c1c(O)nsc1Nc1ccc(Oc2ccccc2)cc1 [Compound 37]
IC50 (GST-hMEK1 and mERK2): < 10 µM

N#Cc1c(OC2CCCCC2)nsc1Nc1ccccc1 [Compound 38]
IC50 (GST-hMEK1 and mERK2): < 10 µM

CC(C)Nc1snc(O)c1C#N [Compound 39]
IC50 (GST-hMEK1 and mERK2): < 10 µM

N#Cc1c(O)nsc1NCCCN1CCOCC1 [Compound 40]
IC50 (GST-hMEK1 and mERK2): < 10 µM
